Test results taken from US6979664B1, “Composition for accelerating seed germination and plant growth” (Bios Agriculture Inc., priority 1998, dated 2005).

Tests used:
Format in all cases: in vivo
Brassica napus = assay: seedling emergence at 15° C.
Excerpt: (§1) Plastic pots (7.5 cm dia) were filled with 15 g of autoclaved vermiculite. Seeds of corn (Zea mays—Poaceae), bean (Phaseolus vulgaris—Fabaceae), canola (Brassica napus—Brassicaceae), cucumber (Cucumis sativus—Cucurbitaceae), cantaloupe (Cucumis melo—Cucurbitaceae), cotton (Gossypium sp.—Malvaceae), lettuce (Lactuca sativa—Asteraceae), beet (Beta vulgaris—Chenopodiaceae), and soybean (Glycine max—Fabaceae), were placed at 2.5 cm deep at the rate of 5 or 10 seeds per pot. Pots were irrigated with either 25 mL of LCO solution at different concentrations (10^−6–10^−14M) or aqueous acetonitrile or water, as controls. Acetonitrile was included as one of the controls since LCO was purified in this solvent (see Example 3), after 4 days the pots were irrigated with 10 mL of water once every two days. Each treatment had 4 replications in a randomized block design. Pots were placed on a green house bench maintained at 25±2° C. with a day/night cycle 16/8 h and relative humidity of 70%, or in a growth chamber set at 15° C. with a 16:8 day/night cycle. […] As defined above, seedling emergence has occurred when growth of the plant can be observed above the rooting medium surface. The percent emergence was calculated. The data were analyzed with Statistical Analysis System, version 6.12 (SAS institute Inc. Cary, N.C., USA).

Cucumis sativus = assay: seedling emergence at 15° C.
Excerpt: as §1

Zea mays = assay: early growth (after seedling emergence) of Zea mays; settings: for Leaf area / No. of roots / Root dry wt./plant / Root length / Shoot dry wt./plant / Spent seed dry wt.: 15 DAS
Excerpt: Plastic pots (7.5 cm dia) were filled with 15 g of autoclaved vermiculite. Seeds of corn (Zea mays—Poaceae), bean (Phaseolus vulgaris—Fabaceae), canola (Brassica napus—Brassicaceae), cucumber (Cucumis sativus—Cucurbitaceae), cantaloupe (Cucumis melo—Cucurbitaceae), cotton (Gossypium sp.—Malvaceae), lettuce (Lactuca sativa—Asteraceae), beet (Beta vulgaris—Chenopodiaceae), and soybean (Glycine max—Fabaceae), were placed at 2.5 cm deep at the rate of 5 or 10 seeds per pot. […] Acetonitrile was included as one of the controls since LCO was purified in this solvent (see Example 3), after 4 days the pots were irrigated with 10 mL of water once every two days. Each treatment had 4 replications in a randomized block design. Pots were placed on a green house bench maintained at 25±2° C. with a day/night cycle 16/8 h and relative humidity of 70%, or in a growth chamber set at 15° C. with a 16:8 day/night cycle. The percent seedling emergence was recorded at 4 days after sowing (DAS). Plant height was recorded from 4 DAS to 15 DAS. Plants were harvested at 15 DAS and leaf area, root length and the number of roots per plant were recorded. The plants were then dissected and placed in paper covers and dried at 90° C. for 24 h and the dry weights of roots, shoots and the spent seeds recorded. The data were analyzed with the Statistical Analysis System version 6.12 (SAS institute Inc. Cary, N.C., USA).

In the case of CCCCCCC=CCCCCCCCCCC(=O)NC1C(OC2C(CO)OC(OC3C(CO)OC(OC4C(CO)OC(OC5C(COC6OC(C)C(O)C(O)C6OC)OC(O)C(NC(C)=O)C5O)C(NC(C)=O)C4O)C(NC(C)=O)C3O)C(NC(C)=O)C2O)OC(CO)C(O)C1O (stereo not shown) [LCO, NodBj-V(C18:1Δ11)], the seedling emergence (Brassica napus; 10^−6M) is reported as 35 bc, the seedling emergence (Brassica napus; 10^−7M) is reported as 32 c and the seedling emergence (Brassica napus; 10^−8M) is reported as 35 bc. It also gave a seedling emergence (Brassica napus; 10^−9M) of 52 ab, a seedling emergence (Brassica napus; 10^−10M) of 62 a and a seedling emergence (Brassica napus; 10^−11M) of 47 bc. For the same molecule, the seedling emergence (Brassica napus; 10^−12M) was 45 bc, the seedling emergence (Brassica napus; 10^−13M) was 37 bc and the seedling emergence (Brassica napus; 10^−14M) was 30 c. The seedling emergence (Cucumis sativus; 10^−6M) was 65 abc, the seedling emergence (Cucumis sativus; 10^−7M) was 85 ab and the seedling emergence (Cucumis sativus; 10^−8M) was 80 ab. For the same molecule, the seedling emergence (Cucumis sativus; 10^−9M) was 70 abc, the seedling emergence (Cucumis sativus; 10^−10M) was 50 c and the seedling emergence (Cucumis sativus; 10^−11M) was 80 ab. The seedling emergence (Cucumis sativus; 10^−12M) was 80 ab, the seedling emergence (Cucumis sativus; 10^−13M) was 70 abc and the seedling emergence (Cucumis sativus; 10^−14M) was 70 abc. For the same molecule, the “Plant height at 15 DAS” value (Zea mays; LCO 10−^5) was 102.9 c mm, the Leaf area (Zea mays; LCO 10−^5) was 11.7 cd cm^2 and the No. of roots (Zea mays; LCO 10−^5) was 6.8 cd. It also gave a Root dry wt./plant (Zea mays; LCO 10−^5) of 75.7 cd mg, a Root length (Zea mays; LCO 10−^5) of 137.0 cd mm and a Shoot dry wt./plant (Zea mays; LCO 10−^5) of 41.6 bcd mg. The “Spent seed dry wt.” value (Zea mays; LCO 10−^5) was 123.5 bc mg, the “Plant height at 15 DAS” value (Zea mays; LCO 10−^6) was 130.4 ab mm and the Leaf area (Zea mays; LCO 10−^6) was 18.2 a cm^2. For the same molecule, the No. of roots (Zea mays; LCO 10−^6) was 7.66 abc, the Root dry wt./plant (Zea mays; LCO 10−^6) was 85.1 bc mg and the Root length (Zea mays; LCO 10−^6) was 150.8 bc mm. For the same molecule, the Shoot dry wt./plant (Zea mays; LCO 10−^6) was 51.4 b mg, the “Spent seed dry wt.” value (Zea mays; LCO 10−^6) was 90.7 cd mg and the “Plant height at 15 DAS” value (Zea mays; LCO 10−^7) was 130.1 ab mm. The Leaf area (Zea mays; LCO 10−^7) was 15.7 ab cm^2, the No. of roots (Zea mays; LCO 10−^7) was 8.0 ab and the Root dry wt./plant (Zea mays; LCO 10−^7) was 96.5 ab mg. The Root length (Zea mays; LCO 10−^7) was 153.9 b mm, the Shoot dry wt./plant (Zea mays; LCO 10−^7) was 51.6 b mg and the “Spent seed dry wt.” value (Zea mays; LCO 10−^7) was 99.5 cd mg. The “Plant height at 15 DAS” value (Zea mays; LCO 10−^8) was 142.6 a mm, the Leaf area (Zea mays; LCO 10−^8) was 19.3 a cm^2 and the No. of roots (Zea mays; LCO 10−^8) was 8.4 a. The Root dry wt./plant (Zea mays; LCO 10−^8) was 103.4 a mg, the Root length (Zea mays; LCO 10−^8) was 187.0 a mm and the Shoot dry wt./plant (Zea mays; LCO 10−^8) was 66.2 a mg. For the same molecule, the “Spent seed dry wt.” value (Zea mays; LCO 10−^8) was 76.3 mg·days, the “Plant height at 15 DAS” value (Zea mays; LCO 10−^9) was 134.7 ab mm and the Leaf area (Zea mays; LCO 10−^9) was 17.0 ab cm^2. The No. of roots (Zea mays; LCO 10−^9) was 7.75 abc, the Root dry wt./plant (Zea mays; LCO 10−^9) was 83.3 bc mg and the Root length (Zea mays; LCO 10−^9) was 144.4 cbd mm. The Shoot dry wt./plant (Zea mays; LCO 10−^9) was 46.8 bc mg, the “Spent seed dry wt.” value (Zea mays; LCO 10−^9) was 93.7 cd mg and the “Plant height at 15 DAS” value (Zea mays; LCO 10−^10) was 127.1 b mm. The Leaf area (Zea mays; LCO 10−^10) was 13.9 bc cm^2, the No. of roots (Zea mays; LCO 10−^10) was 7.95 ab and the Root dry wt./plant (Zea mays; LCO 10−^10) was 89.5 abc mg. The Root length (Zea mays; LCO 10−^10) was 149.1 bc mm, the Shoot dry wt./plant (Zea mays; LCO 10−^10) was 51.4 b mg and the “Spent seed dry wt.” value (Zea mays; LCO 10−^10) was 89.8 cd mg. The “Plant height at 15 DAS” value (Zea mays; LCO 10−^11) was 103.3 mm, the Leaf area (Zea mays; LCO 10−^11) was 8.51 def cm^2 and the No. of roots (Zea mays; LCO 10−^11) was 6.69 cd. It also gave a Root dry wt./plant (Zea mays; LCO 10−^11) of 74.6 cd mg, a Root length (Zea mays; LCO 10−^11) of 132.1 d mm and a Shoot dry wt./plant (Zea mays; LCO 10−^11) of 38.0 cde mg. The “Spent seed dry wt.” value (Zea mays; LCO 10−^11) was 115.9 bc mg, the “Plant height at 15 DAS” value (Zea mays; LCO 10−^12) was 98.3 c mm and the Leaf area (Zea mays; LCO 10−^12) was 8.0 def cm^2. The No. of roots (Zea mays; LCO 10−^12) was 7.25, the Root dry wt./plant (Zea mays; LCO 10−^12) was 84.6 bc mg and the Root length (Zea mays; LCO 10−^12) was 137.9 cd mm. The Shoot dry wt./plant (Zea mays; LCO 10−^12) was 40.6 bcde mg, the “Spent seed dry wt.” value (Zea mays; LCO 10−^12) was 105.4 od mg and the “Plant height at 15 DAS” value (Zea mays; LCO 10−^13) was 91.8 cd mm. It also gave a Leaf area (Zea mays; LCO 10−^13) of 10.4 cde cm^2, a No. of roots (Zea mays; LCO 10−^13) of 6.7 cd and a Root dry wt./plant (Zea mays; LCO 10−^13) of 85.4 bc mg. For the same molecule, the Root length (Zea mays; LCO 10−^13) was 130.9 d mm, the Shoot dry wt./plant (Zea mays; LCO 10−^13) was 43.6 bc mg and the “Spent seed dry wt.” value (Zea mays; LCO 10−^13) was 109.6 cd mg. For the same molecule, the “Plant height at 15 DAS” value (Zea mays; LCO 10−^14) was 99.9 c mm, the Leaf area (Zea mays; LCO 10−^14) was 11.2 cde cm^2 and the No. of roots (Zea mays; LCO 10−^14) was 7.36 abc. It also gave a Root dry wt./plant (Zea mays; LCO 10−^14) of 90.2 abc mg, a Root length (Zea mays; LCO 10−^14) of 136.8 cd mm and a Shoot dry wt./plant (Zea mays; LCO 10−^14) of 46.6 bc mg. For the same molecule, the “Spent seed dry wt.” value (Zea mays; LCO 10−^14) was 102.9 cd mg, the “α-amylase activity in the treated seeds” value (Zea mays; corn seeds) was “dramatic increase” and the “start of seedling emergence after seeding” value (Zea mays; corn, control 3–4 days) was 2 to 3 days. The “LCO concentration of optimum effect” value (Zea mays; early growth of corn (Table 3)) was 10^−8 M.
